Source: patent US20100240683A1, “COMBINATION THERAPY, COMPOSITION AND METHODS FOR THE TREATMENT OF CARDIOVASCULAR DISORDERS” (Syndromex Ltd., priority 2007, published 2010)
One block for each molecule: values may come before it.

How the values were obtained:
CYP2B6 = molecular target: T1, CYP2B6 (Homo sapiens, UniProt P20813); experiment: Fluorimetric CYP inhibition assay, CYP2B6-EFC; settings: read-out: IC50 CYP2B6; substrate EFC
T1 sequence (P20813 1-491): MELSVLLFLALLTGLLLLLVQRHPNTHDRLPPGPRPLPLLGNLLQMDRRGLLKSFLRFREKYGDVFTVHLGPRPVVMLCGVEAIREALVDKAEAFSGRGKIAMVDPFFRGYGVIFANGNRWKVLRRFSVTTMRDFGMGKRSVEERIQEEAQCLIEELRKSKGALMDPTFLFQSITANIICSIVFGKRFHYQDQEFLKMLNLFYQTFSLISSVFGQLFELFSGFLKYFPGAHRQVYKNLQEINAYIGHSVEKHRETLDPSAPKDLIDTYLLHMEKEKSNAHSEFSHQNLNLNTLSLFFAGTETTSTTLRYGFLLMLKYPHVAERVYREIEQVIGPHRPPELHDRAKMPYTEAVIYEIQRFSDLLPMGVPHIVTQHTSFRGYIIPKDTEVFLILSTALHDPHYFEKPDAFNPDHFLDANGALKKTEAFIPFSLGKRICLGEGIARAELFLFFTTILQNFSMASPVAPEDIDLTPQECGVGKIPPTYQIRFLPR

CYP1A2 = molecular target: T2, CYP1A2 (Homo sapiens, UniProt P05177); experiment: in vitro
T2 sequence (P05177 1-516): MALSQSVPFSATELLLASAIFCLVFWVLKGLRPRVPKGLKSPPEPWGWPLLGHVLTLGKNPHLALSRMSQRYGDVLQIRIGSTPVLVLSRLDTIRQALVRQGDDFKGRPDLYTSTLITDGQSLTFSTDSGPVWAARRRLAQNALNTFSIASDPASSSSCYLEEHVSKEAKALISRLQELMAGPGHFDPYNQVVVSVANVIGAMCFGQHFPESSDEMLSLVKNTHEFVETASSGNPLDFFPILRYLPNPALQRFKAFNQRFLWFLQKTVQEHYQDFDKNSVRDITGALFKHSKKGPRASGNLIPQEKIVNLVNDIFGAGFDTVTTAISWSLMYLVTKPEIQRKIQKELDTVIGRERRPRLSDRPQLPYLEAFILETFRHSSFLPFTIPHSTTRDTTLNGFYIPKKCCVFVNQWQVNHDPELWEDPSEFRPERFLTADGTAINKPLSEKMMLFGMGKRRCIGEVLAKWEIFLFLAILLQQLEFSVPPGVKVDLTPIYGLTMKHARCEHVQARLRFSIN

CYP2C8 [1] = molecular target: T3, CYP2C8 (Homo sapiens, UniProt P10632)
T3 sequence (P10632 1-490): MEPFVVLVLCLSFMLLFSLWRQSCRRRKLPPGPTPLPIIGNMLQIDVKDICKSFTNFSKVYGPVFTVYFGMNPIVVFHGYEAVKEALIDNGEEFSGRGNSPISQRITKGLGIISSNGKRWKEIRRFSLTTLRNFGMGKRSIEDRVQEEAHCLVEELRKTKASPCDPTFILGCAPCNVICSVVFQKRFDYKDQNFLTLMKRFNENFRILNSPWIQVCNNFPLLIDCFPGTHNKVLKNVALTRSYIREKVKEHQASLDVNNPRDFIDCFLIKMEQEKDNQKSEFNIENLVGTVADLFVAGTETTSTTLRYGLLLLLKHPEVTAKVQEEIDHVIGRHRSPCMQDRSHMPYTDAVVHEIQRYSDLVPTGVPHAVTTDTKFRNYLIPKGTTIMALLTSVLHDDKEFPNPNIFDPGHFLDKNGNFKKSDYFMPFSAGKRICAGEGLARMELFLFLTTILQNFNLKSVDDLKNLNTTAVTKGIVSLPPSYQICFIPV

CYP2C8 [2] = molecular target: T3, CYP2C8; experiment: in vitro
Guinea pigs = experiment: Hypolipidemic effect in Guinea pigs model (plasma TG, cholesterol, lipoproteins); assay type: in vivo, Guinea pig; settings: Simvastatin table: gavage 10 mg/kg/bw, 21 days, n = 8
Description: • Guinea pigs (400-500 g) were obtained from Harlan (Israel) or Harlan (Netherlands). Animals were treated by gavage with Medica 16αα, Medica 16ββ and Simvastatin as indicated in 1% CMC for the specified treatment periods. During treatment period the animals were weighed and observed daily.
Non-fasted guinea pigs were anesthetized with ketamine (75 mg/kg body weight) and xylazine (6 mg/kg body weight), followed by S.C. abdominal injections of 2% lignocaine. Anesthetized animals were bled into tubes containing EDTA. Plasma chylomicrons were removed by centrifugation (20 min, 30K rpm, TST 55.5 rotor). Plasma TG was assayed by Roche/Hitachi kit. Plasma cholesterol was assayed by Roche Diagnostic's kit.
Chylomicrons-free plasma was subjected to continuous KBr-gradient centrifugation (24 h, 40K rpm, SW41 rotor), followed by fractionating gradient tubes into 0.5 ml fractions. TG, cholesterol and protein of each fraction were measured as described above. […]
Guinea pigs were treated by gavage with M16αα, M16ββ or with Simvastatin, weighed and observed daily. Plasma triglycerides (TG) and cholesterol, as well as plasma lipoproteins and their composition were examined on days 21 and 22 (as specified in the following tables) of the experiments, as described in Experimental procedures. As clearly shown by Table 3 and FIG. 1, treatment with M16αα decreases plasma triglycerides (TG).

CYP2C9 = CYP2C9 (Homo sapiens, UniProt P11712); experiment: Fluorimetric CYP inhibition assay, CYP2C9-MFC; settings: human, MFC; for inhibition at 0 μM: positive control 0.00 μM (second line); for inhibition at 0.01 μM: positive control 0.01 μM (first line); for inhibition at 0.02 μM: positive control 0.02 μM; for inhibition at 0.06 μM: positive control 0.06 μM; for inhibition at 1.67 μM: positive control 1.67 μM
Chain of CYP2C9 (P11712 whole entry): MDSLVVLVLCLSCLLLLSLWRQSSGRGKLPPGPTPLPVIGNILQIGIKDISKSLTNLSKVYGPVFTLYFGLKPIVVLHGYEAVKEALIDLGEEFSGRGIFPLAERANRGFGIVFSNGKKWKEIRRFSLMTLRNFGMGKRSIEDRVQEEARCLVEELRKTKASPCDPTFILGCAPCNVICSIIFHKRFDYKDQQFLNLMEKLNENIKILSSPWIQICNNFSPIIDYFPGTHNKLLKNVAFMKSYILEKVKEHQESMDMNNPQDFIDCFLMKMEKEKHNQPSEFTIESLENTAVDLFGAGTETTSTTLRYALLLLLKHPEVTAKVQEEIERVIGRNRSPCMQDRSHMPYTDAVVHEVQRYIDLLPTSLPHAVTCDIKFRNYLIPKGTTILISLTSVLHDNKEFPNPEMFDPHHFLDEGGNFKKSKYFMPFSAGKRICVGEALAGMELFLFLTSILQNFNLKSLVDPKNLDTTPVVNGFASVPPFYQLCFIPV

SMILES: N[C@@H]1C[C@H]1c1ccccc1 (racemic) [Tranylcypromine, reference compound]
IC50 (CYP2B6): 5.9 µM

inhibition at 5.56 μM (CYP1A2; % Inhibition (set 1)): 90%
inhibition at 50 μM (CYP1A2; % Inhibition (set 2)): 99%
SMILES: Cc1nc2c([nH]1)c(=O)n(C)c(=O)n2Cc1ccco1 [Furafylline, reference compound]

IC50 (CYP2C8 [1]): 1.4 µM
% Inhibition (set 2) (CYP2C8 [1]; 0.05 μM): 0%
inhibition at 0.05 μM (CYP2C8 [2]; % Inhibition (set 1)): 8%
inhibition at 0.41 μM (CYP2C8 [2]; % Inhibition (set 1)): 16%
inhibition at 1.23 μM (CYP2C8 [2]; % Inhibition (set 1)): 51%
inhibition at 3.7 μM (CYP2C8 [2]; % Inhibition (set 1)): 88%
inhibition at 11.11 μM (CYP2C8 [2]; % Inhibition (set 1)): 100%
inhibition at 33.33 μM (CYP2C8 [2]; % Inhibition (set 1)): 100%
inhibition at 100 μM (CYP2C8 [2]; % Inhibition (set 1)): 100%
inhibition at 0.05 μM (CYP2C8 [2]; % Inhibition (set 2)): 0%
inhibition at 0.41 μM (CYP2C8 [2]; % Inhibition (set 2)): 9%
inhibition at 1.23 μM (CYP2C8 [2]; % Inhibition (set 2)): 32%
inhibition at 3.7 μM (CYP2C8 [2]; % Inhibition (set 2)): 89%
inhibition at 11.11 μM (CYP2C8 [2]; % Inhibition (set 2)): 98%
inhibition at 33.33 μM (CYP2C8 [2]; % Inhibition (set 2)): 100%
inhibition at 100 μM (CYP2C8 [2]; % Inhibition (set 2)): 100%
SMILES: O=c1c(O)c(-c2ccc(O)c(O)c2)oc2cc(O)cc(O)c12 [Quercetin, reference compound]

SMILES: CCC(C)(C)C(=O)O[C@H]1C[C@@H](C)C=C2C=C[C@H](C)[C@H](CC[C@@H]3C[C@@H](O)CC(=O)O3)[C@H]21 [Simvastatin, reference compound]
Plasma TG (Guinea pigs): 83 ± 16 mg %
Plasma cholesterol (Guinea pigs; *p < 0.05): 23 ± 2.0* mg %

SMILES: Nc1ccc(S(=O)(=O)Nc2ccnn2-c2ccccc2)cc1 [Sulfaphenazole]
inhibition at 0 μM (CYP2C9; % Inhibition (set 1)): 0%
inhibition at 0.01 μM (CYP2C9; % Inhibition (set 1)): 0%
inhibition at 0.02 μM (CYP2C9; % Inhibition (set 1)): 3%
inhibition at 0.06 μM (CYP2C9; % Inhibition (set 1)): 11%
inhibition at 1.67 μM (CYP2C9; % Inhibition (set 1)): 76%
inhibition at 5 μM (CYP2C9; % Inhibition (set 1), positive control 5.00 μM): 89%
inhibition at 0 μM (CYP2C9; % Inhibition (set 2)): 0%
inhibition at 0.01 μM (CYP2C9; % Inhibition (set 2)): 1%
inhibition at 0.02 μM (CYP2C9; % Inhibition (set 2)): 3%
inhibition at 0.06 μM (CYP2C9; % Inhibition (set 2)): 6%
inhibition at 1.67 μM (CYP2C9; % Inhibition (set 2)): 74%
